From patent US11359011B2, “Treatment and prevention of cardiovascular disease” (Edifice Health, Inc., priority 2019, dated 2022)

How the values were obtained:
estrogen levels = conditions: while raising testosterone levels; cited from earlier work
Mouse thoracic aortas = assay: Acetylcholine relaxation of mouse thoracic aortic rings on an isometric wire myograph after exposure to MIG; conditions: mouse thoracic aortic sections incubated with different concentrations of recombinant mouse MIG, pre-contracted with U46619; FIG. 6
Method: Mouse thoracic aortas were carefully dissected, and vessels were cut into small rings and mounted on an isometric wire myograph chambers (Danish Myo Technology) and subjected to a normalization protocol. Following normalization, the vessels were incubated with either PBS or different concentrations of recombinant mouse MIG (R&D systems, catalog number 492-MM). A concentration-dependent contraction curve was created by accumulative application of the prostaglandin agonist U46619. Subsequently, concentration-dependent relaxation curves of Acetylcholine were conducted on these vessels and percent relaxation calculated for each dose.

N#Cc1ccc(C(c2ccc(C#N)cc2)n2cncn2)cc1 [Letrozole]
reduction of estrogen levels (estrogen levels): 98%

B1: MIG: recombinant mouse MIG (R&D systems, catalog number 492-MM); monokine induced by gamma interferon, CXC chemokine (protein, UniProt P18340 22-126, looked up)
C-X-C motif chemokine 9: TLVIRNARCSCISTSRGTIHYKSLKDLKQFAPSPNCNKTEIIATLKNGDQTCLDPDSANVKKLMKEWEKKISQKKKQKRGKKHQKNMKNRKPKTPQSRRRSRKTT
effect on vasorelaxation (percent relaxation to Acetylcholine) (Mouse thoracic aortas): impaired vascular reactivity with increasing concentrations of MIG
